# Values quoted from earlier work as cited in patent publication US7361789B1, “Dihydronaphthalene compounds, compositions, uses thereof, and methods for synthesis” (Amgen Inc., priority 2004, dated 2008).
# Like-named read-outs stand apart in the source and are kept apart here.
smiles,measurement,setting,value
C[C@@H](NCCCc1cccc(C(F)(F)F)c1)c1cccc2ccccc12 [cinacalcet],solubility in water,neutral pH,less than 1 μg/mL
same,solubility,pH is about 1,about 0.1 mg/mL
same,solubility,pH ranges from about 3 to about 5,about 1.6 mg/mL
